Consider twelve compounds from patent US20230139171A1 (SITA Information Networking Computing UK Limited, priority 2019, published 2023).

Structures are written as SMILES. Like-named read-outs stand apart in the source and are kept apart here.

One assay deals with T1, human TLR8 (Homo sapiens, UniProt Q9NR97).
T1 construct: host or cells: HEK-Blue cells
T1 sequence (Q9NR97 27-1041): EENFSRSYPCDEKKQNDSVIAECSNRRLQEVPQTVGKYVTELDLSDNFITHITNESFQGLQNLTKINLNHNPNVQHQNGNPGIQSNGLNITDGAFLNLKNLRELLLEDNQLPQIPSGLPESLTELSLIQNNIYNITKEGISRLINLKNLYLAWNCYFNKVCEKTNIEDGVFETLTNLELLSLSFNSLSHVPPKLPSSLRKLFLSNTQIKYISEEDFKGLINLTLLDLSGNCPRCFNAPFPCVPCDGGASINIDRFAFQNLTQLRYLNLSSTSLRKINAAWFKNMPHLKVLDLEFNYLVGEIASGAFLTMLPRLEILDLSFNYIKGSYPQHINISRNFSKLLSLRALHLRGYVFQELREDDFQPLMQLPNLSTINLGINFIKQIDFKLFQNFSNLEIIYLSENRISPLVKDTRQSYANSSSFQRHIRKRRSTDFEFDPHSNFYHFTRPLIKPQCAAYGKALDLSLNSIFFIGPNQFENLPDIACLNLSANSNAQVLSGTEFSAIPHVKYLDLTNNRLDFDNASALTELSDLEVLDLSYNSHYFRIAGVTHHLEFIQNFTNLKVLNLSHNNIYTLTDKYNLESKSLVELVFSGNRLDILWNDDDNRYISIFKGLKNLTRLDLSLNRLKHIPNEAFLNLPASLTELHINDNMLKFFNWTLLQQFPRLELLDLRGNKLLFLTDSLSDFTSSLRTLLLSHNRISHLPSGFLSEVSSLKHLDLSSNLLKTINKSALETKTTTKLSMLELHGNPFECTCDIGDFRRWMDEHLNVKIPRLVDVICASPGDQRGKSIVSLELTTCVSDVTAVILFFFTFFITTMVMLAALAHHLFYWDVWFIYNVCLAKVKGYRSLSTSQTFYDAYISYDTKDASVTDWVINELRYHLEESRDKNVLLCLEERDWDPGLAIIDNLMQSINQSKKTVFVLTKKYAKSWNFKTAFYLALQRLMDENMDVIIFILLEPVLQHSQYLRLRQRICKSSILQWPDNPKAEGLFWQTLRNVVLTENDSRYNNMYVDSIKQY
As to the kind of experiment: TLR8 inhibition reporter assay (HEK-Blue cells, SEAP reporter, R848 stimulation). As to conditions: R848 15.9 μM. The class given is cell-based. The gist of the method:
(§1)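 HEK-Blue cells overexpressing human TLR7, TLR8 or TLR9 carry a SEAP reporter driven by NF-κB/AP-1 sites. Compounds (0.05 nM–50 μM) were preincubated 30 min at room temperature, then cells were stimulated with gardiquimod 7.5 μM (TLR7), R848 15.9 μM (TLR8) or ODN2006 5 nM (TLR9) for 22 h at 37 °C.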
(In a reporter assay the amount or activity of a reporter protein is the signal.)

For the next assay, the target named is T2, human TLR7 (Homo sapiens, UniProt Q9NYK1).
T2 construct: host or cells: HEK-Blue cells
T2 sequence (Q9NYK1 27-1049): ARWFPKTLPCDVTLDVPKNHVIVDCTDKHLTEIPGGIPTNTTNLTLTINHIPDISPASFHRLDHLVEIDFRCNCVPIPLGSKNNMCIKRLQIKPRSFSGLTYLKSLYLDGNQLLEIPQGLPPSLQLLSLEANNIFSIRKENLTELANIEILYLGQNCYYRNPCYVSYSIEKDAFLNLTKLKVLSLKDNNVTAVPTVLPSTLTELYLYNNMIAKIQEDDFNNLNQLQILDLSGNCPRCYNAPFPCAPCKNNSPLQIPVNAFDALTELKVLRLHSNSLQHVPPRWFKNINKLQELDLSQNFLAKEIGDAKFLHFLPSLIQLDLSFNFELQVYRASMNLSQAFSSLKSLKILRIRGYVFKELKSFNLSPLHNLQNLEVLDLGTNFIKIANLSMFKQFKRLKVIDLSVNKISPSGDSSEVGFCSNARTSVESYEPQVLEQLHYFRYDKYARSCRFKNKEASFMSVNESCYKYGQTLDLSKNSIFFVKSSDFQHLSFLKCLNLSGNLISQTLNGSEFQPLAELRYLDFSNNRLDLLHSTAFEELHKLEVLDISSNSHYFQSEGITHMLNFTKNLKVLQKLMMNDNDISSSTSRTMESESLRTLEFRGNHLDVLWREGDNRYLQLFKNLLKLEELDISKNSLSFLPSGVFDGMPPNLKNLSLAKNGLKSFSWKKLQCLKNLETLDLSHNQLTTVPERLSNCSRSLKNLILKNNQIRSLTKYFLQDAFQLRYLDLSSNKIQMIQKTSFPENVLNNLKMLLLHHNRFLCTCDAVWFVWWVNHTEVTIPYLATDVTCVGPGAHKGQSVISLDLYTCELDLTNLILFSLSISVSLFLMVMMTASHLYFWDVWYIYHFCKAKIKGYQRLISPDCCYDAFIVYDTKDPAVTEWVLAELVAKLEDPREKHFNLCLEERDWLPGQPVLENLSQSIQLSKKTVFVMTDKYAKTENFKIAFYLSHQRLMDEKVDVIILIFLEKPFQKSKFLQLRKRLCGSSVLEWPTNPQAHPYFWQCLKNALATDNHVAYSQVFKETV
As to the kind of experiment: TLR7 inhibition reporter assay (HEK-Blue cells, SEAP reporter, gardiquimod stimulation). The settings on record: gardiquimod 7.5 μM. In kind it is cell-based. The gist of the method: as §1

The mark [1] stands for this setting: HEK-Blue cells overexpressing human TLR8, SEAP reporter, read-out: TLR8 IC50.
Where [2] appears, read: HEK-Blue cells overexpressing human TLR7, SEAP reporter, read-out: TLR7 IC50.

With `CNC(=O)CN1CCC(c2nc3c(C(C)C)c(-c4cn(C)c(=O)c(C)c4C)[nH]c3s2)CC1` [Example 63, 2-(4-(6-isopropyl-5-(1,4,5-trimethyl-6-oxo-1,6-dihydropyridin-3-yl)-4H-pyrrolo[3,2-d]thiazol-2-yl)piperidin-1-yl)-N-methylacetamide], the figures for the 50% inhibitory concentration (IC50) at human TLR8 (setting [1]) and at human TLR7 (setting [2]) were 14.6 nM and 24.8 nM, respectively.
As to `Cc1c(-c2[nH]c3sc(CN4CC5(C4)CS(=O)(=O)C5)nc3c2C(C)C)cn2ncnc2c1C` [Example 403, 6-((5-(7,8-dimethyl-[1,2,4]triazolo[1,5-a]pyridin-6-yl)-6-isopropyl-4H-pyrrolo[3,2-d]thiazol-2-yl)methyl)-2-thia-6-azaspiro[3.3]heptane 2,2-dioxide], the IC50 stood at 156 nM on human TLR8 (TLR8 IC50, HEK-Blue cells overexpressing human TLR8, SEAP reporter) and 26.9 nM against human TLR7 (TLR7 IC50, HEK-Blue cells overexpressing human TLR7, SEAP reporter).
In the case of `Cc1c(-c2[nH]c3sc(N4CC5(C4)CN(C4COC4)C5)nc3c2C(C)C)cn2ncnc2c1C` [Example 302, 5-(7,8-dimethyl-[1,2,4]triazolo[1,5-a]pyridin-6-yl)-6-isopropyl-2-(6-(oxetan-3-yl)-2,6-diazaspiro[3.3]heptan-2-yl)-4H-pyrrolo[3,2-d]thiazole], the IC50 came out at 14.2 nM on human TLR8 (setting [1]) and 9.44 nM on human TLR7 (setting [2]).
`CNC(=O)CN1CCN(c2nc3c(C(C)C)c(-c4cn5ncnc5c(C)c4C)[nH]c3s2)[C@@H](C)C1` [Example 342, (S)-2-(4-(5-(7,8-dimethyl-[1,2,4]triazolo[1,5-a]pyridin-6-yl)-6-isopropyl-4H-pyrrolo[3,2-d]thiazol-2-yl)-3-methylpiperazin-1-yl)-N-methylacetamide]: the 50% inhibitory concentration (IC50) on human TLR8 (setting [1]) was determined as 12.6 nM; on human TLR7 (setting [2]), 19.6 nM.
On to `Cc1cc(-c2[nH]c3sc(C(N)=O)nc3c2C(C)C)cn2ncnc12` [Example 391, 6-isopropyl-5-(8-methyl-[1,2,4]triazolo[1,5-a]pyridin-6-yl)-4H-pyrrolo[3,2-d]thiazole-2-carboxamide], for which the IC50 on human TLR8 (setting [1]) was 118 nM; at human TLR7 (setting [2]), 102 nM.
Regarding `Cc1c(-c2[nH]c3sc(CN4CC5(CCOCC5)C4)nc3c2C(C)C)cn2ncnc2c1C` [Example 404, 2-((5-(7,8-dimethyl-[1,2,4]triazolo[1,5-a]pyridin-6-yl)-6-isopropyl-4H-pyrrolo[3,2-d]thiazol-2-yl)methyl)-7-oxa-2-azaspiro[3.5]nonane], the IC50 stood at 124 nM on human TLR8 (setting [1]) and 43.6 nM on human TLR7 (setting [2]).
The corresponding values for `Cc1c(-c2[nH]c3sc(C4CCN(C5COC5)CC4)nc3c2C(C)C)cn2ncnc2c1C` [Example 43, 5-(7,8-dimethyl-[1,2,4]triazolo[1,5-a]pyridin-6-yl)-6-isopropyl-2-(1-(oxetan-3-yl)piperidin-4-yl)-4H-pyrrolo[3,2-d]thiazole] are 5.22 nM and 2.54 nM.
Consider `Cc1c(-c2[nH]c3sc(C4CCN(C5COC5)CC4)nc3c2C(C)C)cn(C)c(=O)c1C` [Example 60, 5-(6-isopropyl-2-(1-(oxetan-3-yl)piperidin-4-yl)-4H-pyrrolo[3,2-d]thiazol-5-yl)-1,3,4-trimethylpyridin-2(1H)-one], for which the IC50 on human TLR8 (setting [1]) worked out at 27.9 nM; at human TLR7 (setting [2]), 36.6 nM.
Take `Cc1c(-c2[nH]c3sc(C4CCN(CC(=O)N(C)C)CC4)nc3c2C(C)C)cn(C)c(=O)c1C` [Example 62, 2-(4-(6-isopropyl-5-(1,4,5-trimethyl-6-oxo-1,6-dihydropyridin-3-yl)-4H-pyrrolo[3,2-d]thiazol-2-yl)piperidin-1-yl)-N,N-dimethylacetamide]: the figures for the 50% inhibitory concentration (IC50) at human TLR8 (setting [1]) and on human TLR7 (setting [2]) were 22.3 nM and 88.6 nM, respectively.
On to `Cc1c(-c2[nH]c3sc(N4CCN(CCS(C)(=O)=O)C[C@H]4C)nc3c2C(C)C)cn2ncnc2c1C` [Example 314, (R)-5-(7,8-dimethyl-[1,2,4]triazolo[1,5-a]pyridin-6-yl)-6-isopropyl-2-(2-methyl-4-(2-(methylsulfonyl)ethyl)piperazin-1-yl)-4H-pyrrolo[3,2-d] thiazole], for which the values for the half-inhibitory concentration (IC50) on human TLR8 (setting [1]) and on human TLR7 (setting [2]) were 18.5 nM and 13.9 nM, respectively.
Regarding `Cc1c(-c2[nH]c3sc(N4CCN(CCS(C)(=O)=O)CC4)nc3c2C(C)C)cn2ncnc2c1C` [Example 282, 5-(7,8-dimethyl-[1,2,4]triazolo[1,5-a]pyridin-6-yl)-6-isopropyl-2-(4-(2-(methylsulfonyl)ethyl)piperazin-1-yl)-4H-pyrrolo[3,2-d]thiazole], the half-maximal inhibitory concentration (IC50) at human TLR8 (setting [1]) is 5.33 nM; on human TLR7 (setting [2]), 29.8 nM.
In the same order, the values of `Cc1c(-c2[nH]c3sc(N4CCN(C5COC5)C[C@@H]4C)nc3c2C(C)C)cn2ncnc2c1C` [Example 348, (S)-5-(7,8-dimethyl-[1,2,4]triazolo[1,5-a]pyridin-6-yl)-6-isopropyl-2-(2-methyl-4-(oxetan-3-yl)piperazin-1-yl)-4H-pyrrolo[3,2-d]thiazole] are 22.4 nM and 19.1 nM.

What is called IC50 is the midpoint of a concentration-inhibition curve.
